Source: patent US20260240851A1, “Treatment of Parkinson's Disease in a Patient Using a Glucocerebrosidase Activator” (BIAL - R&D Investments, S.A., priority 2023, published 2026)

What was measured:
[1] = test system: GluCer in plasma and PBMCs; assay: LTI-291-001: GluCer biomarker; assay type: in vivo, human; details: single doses, vs placebo
Protocol: The pharmacodynamic evaluations consisted of a battery of CNS (NeuroCart®) assessments, including Saccadic Eye Movements, Smooth Pursuit Eye Movements, Adaptive Tracking, Body Sway, Visual Verbal Learning Test, and EEG. GluCer was measured in plasma and PBMCs as a biomarker of pharmacological effect.

[2] = BIA 28-6156-106 mass balance recovery, metabolite profiling and PK of 14C-Compound A; assay type: in vivo, human
Protocol: This was a Phase 1, single-dose, mass balance recovery study of ^14C-Compound A in 1 cohort of healthy male subjects, aged 30 to 65 years. A total of 6 subjects received a single oral dose of 60 mg Compound A, containing not more than 3.7 MBq ^14C, under fasted conditions. Objectives included determining the routes and rates of elimination of ^14C-Compound A, identifying the structure of metabolites that account for more than 10% of circulating total radioactivity in plasma and total radioactive dose in urine and feces, exploring the PK of Compound A, evaluating the extent of distribution of TR into blood cells, and gathering additional safety and tolerability information for Compound A.

[3] = target: T1, GCase (Homo sapiens, UniProt P04062); assay: In vitro GCase brain homogenate activity assay superimposed on estimated human brain Cb,min,ss; assay type: biochemical; details: for minimum GCase activity in GBA-PD patients: brain Cmin at steady state (Cb,min,ss), estimated
T1 construct: brain homogenate (5 μg/well) as enzyme source; from tissue; host or cells: human brain homogenate
T1 sequence (P04062 40-536): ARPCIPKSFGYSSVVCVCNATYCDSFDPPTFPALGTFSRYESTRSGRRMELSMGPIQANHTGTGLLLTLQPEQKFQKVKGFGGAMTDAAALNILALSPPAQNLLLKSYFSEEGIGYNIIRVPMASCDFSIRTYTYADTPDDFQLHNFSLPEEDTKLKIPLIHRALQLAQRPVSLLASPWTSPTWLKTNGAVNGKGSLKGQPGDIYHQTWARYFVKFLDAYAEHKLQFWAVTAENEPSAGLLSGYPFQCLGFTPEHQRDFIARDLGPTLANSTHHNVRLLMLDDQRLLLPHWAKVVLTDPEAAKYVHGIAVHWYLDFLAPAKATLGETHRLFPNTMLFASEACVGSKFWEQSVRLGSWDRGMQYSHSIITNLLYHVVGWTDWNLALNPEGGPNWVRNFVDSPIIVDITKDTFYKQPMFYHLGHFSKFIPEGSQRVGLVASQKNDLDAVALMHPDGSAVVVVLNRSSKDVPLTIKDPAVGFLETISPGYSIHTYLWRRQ
Excerpt: The in vitro measurement of GCase activity in human brain homogenates was used to correlate the exposure and GCase activity and to estimate the increase in GCase activity in the brain of GBA-PD patients at Cmin at steady state (Cb,min,ss) across different dose levels. The relationship between concentration observed in brain and CSF in rat was used to obtain the brain concentrations of Compound A in humans, assuming the same relationship conserved among mammalian species. The range of human estimated Cb,min,ss were superimposed to the corresponding concentration from in vitro study with human brain homogenates to obtain the GCase activation by Compound A.
The activity of Compound A in the GCase assay was determined using 4-MUG (1 mM) as substrate and brain homogenate (5 μg/well) as enzyme source.
A 500 μl aliquot of a 1.0 mg/ml solution of phosphatidylserine (PS, Sigma P7769) in chloroform was evaporated under a stream of nitrogen for 1 hour. The lipid film was dissolved with 4 minutes of vigorous vortexing in 41 ml of 176 mM K2HPO4/50 mM citric acid pH 4.7 containing 7.7 μl of triton X-100, resulting in a mixed micellar preparation with a composition of 0.32 mM triton and 4.6 mol % PS.
4-methylumbelliferyl-beta-D-glucopyranoside (4-MUG, ACROS-337025000) was dissolved in the micellar solution to a final concentration of 2 mM for use as the reaction substrate. The micellar/homogenate solution was prepared by adding 3.2 ml Triton X-100/phosphotidylserine mixed micelles containing 400 μg/mL brain homogenate. A 1.6 mL portion of this mixture received 32 μl conduritol B epoxide (CBE, 100 mM stock in DMSO) for final concentration of 2 mM CBE. The remaining 1.6 mL portion received 32 μl DMSO as solvent control. Compound A was diluted with DMSO from a 10 mM stock to the desired assay concentrations, and 0.45 μl of compound in DMSO was added to 75 μl of micellar/homogenate solution (+/−CBE).
After a 30 minute pre-incubation at room temperature, the reaction was initiated by combining 25 μl of substrate solution with 25 μl of compound/GCase/homogenate mixture. The reaction proceeded for 30 minutes at room temperature for Rat, Cyno and Dog brain homogenates, 60 minutes for Mouse and Human brain homogenate. The reaction was stopped by adding 150 μl of 1M glycine, pH 12.5. The endpoint fluorescence intensity of the reaction was measured at excitation 365 nm, emission 440 nm on a SpectraMax i3 instrument (Molecular Devices). Compound activity was expressed relative to a DMSO control. […]
An API4000 mass spectrometer equipped with a turbo ion spray source was used for detection in positive ion mode. Quantification was based on multiple reaction monitoring (MRM) of the transitions of m/z 359.2-174.2 for LTI-291 and m/z 365.3-180.2 for its internal standard. […]

Compound: CCCCCO[C@H]1CC[C@H](NC(=O)c2cnn3c(C)cc(C)nc23)CC1 [Compound A, 5,7-dimethyl-N-((1S*,4S)-4-(pentyloxy)cyclohexyl)pyrazolo[1,5-a]pyrimidine-3-carboxamide]
- GluCer variables in PBMCs [1]: Differences between treatment with Compound A and placebo were observed
- GluCer variables in plasma [1]: No significant overall treatment effects
- radioactivity recovered in excreta, mean ([2]; 60 mg 14C-Compound A oral, fasted, 288-hour sampling period): approximately 93%
- exposure to Compound A as share of circulating plasma total recovery ([2]; based on AUC0-inf): approximately 92%
- Tmax ([2]; male, human, plasma, single oral dose of 60 mg 14C BIA-28, read-out: Median Tmax): 1.5 h
- AUC(0-inf) ([2]; male, human, plasma, single oral dose of 60 mg 14C BIA-28, read-out: plasma AUC0-inf, geometric mean): 42100 ng·h/mL
- AUC(0-t) ([2]; male, human, plasma, single oral dose of 60 mg 14C BIA-28, read-out: plasma AUC0-last, geometric mean): 41700 ng·h/mL
- Cmax ([2]; male, human, plasma, single oral dose of 60 mg 14C BIA-28, read-out: plasma Cmax, geometric mean): 1750 ng/mL
- half-life ([2]; male, human, plasma, single oral dose of 60 mg 14C BIA-28, read-out: plasma half-life, geometric mean (converted)): 21.5 h
- minimum GCase activity in GBA-PD patients ([3]; 10 mg): 69.7-123%
- minimum GCase activity relative to effective GCase activity ([3]; 10 mg, dosing interval 24 h): approximately 2 times
- minimum GCase activity in GBA-PD patients ([3]; 30 mg): 163-306%
- minimum GCase activity in GBA-PD patients ([3]; 60 mg): 255-376%
